From the supplement of paper PMC10307832

Legend:
Experiment in all cases: relative viability (nuclei count vs DMSO), 5 days (fraction); higher = more cells survive
NCI-H1650 = system: NCI-H1650
How it was run: (§1)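 Lung cancer cell lines were pin-tool dosed in 1536-well plates on the day after seeding, with either a lone drug or a fixed anchor-drug dose plus five library-drug doses (not always all listed) in √10 steps. Nuclei were counted on 4× images after 5 days. Relative viability is the ratio of treated-well to vehicle-well nuclei counts, with each value a median of duplicate plates.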

HCC-15 = system: HCC-15
How it was run: as §1

COR-L23 = system: COR-L23
How it was run: as §1

NCI-H838 = system: NCI-H838
How it was run: as §1

SW 900 = system: SW 900
How it was run: as §1

201T = system: 201T
How it was run: as §1

HCC-44 = system: HCC-44
How it was run: as §1

NCI-H358 = system: NCI-H358
How it was run: as §1

HCC-827 = system: HCC-827
How it was run: as §1

NCI-H1975 = system: NCI-H1975
How it was run: as §1

NCI-H1437 = system: NCI-H1437
How it was run: as §1

NCI-H23 = system: NCI-H23
How it was run: as §1

NCI-H2342 = system: NCI-H2342
How it was run: as §1

BEN = system: BEN
How it was run: as §1

NCI-H441 = system: NCI-H441
How it was run: as §1

EKVX = system: EKVX
How it was run: as §1

SK-MES-1 = system: SK-MES-1
How it was run: as §1

NCI-H650 = system: NCI-H650
How it was run: as §1

A-427 = system: A-427
How it was run: as §1

NCI-H596 = system: NCI-H596
How it was run: as §1

HARA = system: HARA
How it was run: as §1

With `COc1cc2nccc(Oc3ccc(NC(=O)Nc4cc(C)on4)c(Cl)c3)c2cc1OC` [Tivozanib] + Cc1cc(Nc2cc(N3CCN(C)CC3)nc(Sc3ccc(NC(=O)C4CC4)cc3)n2)n[nH]1 [Tozasertib] (partner 0.1 µM) the relative viability (NCI-H1650; first compound 0.005 µM) was 0.445, the relative viability (NCI-H1650; first compound 0.01581 µM) was 0.436 and the relative viability (NCI-H1650; first compound 0.05 µM) was 0.421. The relative viability (NCI-H1650; first compound 0.1581 µM) was 0.349, the relative viability (NCI-H1650; first compound 0.5 µM) was 0.422 and the relative viability (HCC-15; first compound 0.005 µM) was 0.411. For the same compound, the relative viability (HCC-15; first compound 0.01581 µM) was 0.419, the relative viability (HCC-15; first compound 0.05 µM) was 0.496 and the relative viability (HCC-15; first compound 0.1581 µM) was 0.415. The relative viability (HCC-15; first compound 0.5 µM) was 0.354, the relative viability (COR-L23; first compound 0.005 µM) was 0.172 and the relative viability (COR-L23; first compound 0.01581 µM) was 0.218. It also gave a relative viability (COR-L23; first compound 0.05 µM) of 0.363, a relative viability (COR-L23; first compound 0.1581 µM) of 0.268 and a relative viability (COR-L23; first compound 0.5 µM) of 0.228. For the same compound, the relative viability (NCI-H838; first compound 0.005 µM) was 0.268, the relative viability (NCI-H838; first compound 0.01581 µM) was 0.291 and the relative viability (NCI-H838; first compound 0.05 µM) was 0.29. For the same compound, the relative viability (NCI-H838; first compound 0.5 µM) was 0.291, the relative viability (SW 900; first compound 0.005 µM) was 0.624 and the relative viability (SW 900; first compound 0.01581 µM) was 0.626. The relative viability (SW 900; first compound 0.05 µM) was 0.606, the relative viability (SW 900; first compound 0.1581 µM) was 0.637 and the relative viability (SW 900; first compound 0.5 µM) was 0.565. It also gave a relative viability (201T; first compound 0.005 µM) of 0.974, a relative viability (201T; first compound 0.01581 µM) of 0.959 and a relative viability (201T; first compound 0.05 µM) of 0.981. The relative viability (201T; first compound 0.1581 µM) was 0.985, the relative viability (201T; first compound 0.5 µM) was 0.996 and the relative viability (HCC-44; first compound 0.005 µM) was 0.889. For the same compound, the relative viability (HCC-44; first compound 0.01581 µM) was 0.9, the relative viability (HCC-44; first compound 0.05 µM) was 0.839 and the relative viability (HCC-44; first compound 0.1581 µM) was 1.04. For the same compound, the relative viability (HCC-44; first compound 0.5 µM) was 0.773, the relative viability (NCI-H358; first compound 0.005 µM) was 0.0936 and the relative viability (NCI-H358; first compound 0.01581 µM) was 0.101. For the same compound, the relative viability (NCI-H358; first compound 0.05 µM) was 0.102, the relative viability (NCI-H358; first compound 0.1581 µM) was 0.102 and the relative viability (NCI-H358; first compound 0.5 µM) was 0.108. It also gave a relative viability (HCC-827; first compound 0.005 µM) of 0.429, a relative viability (HCC-827; first compound 0.01581 µM) of 0.421 and a relative viability (HCC-827; first compound 0.05 µM) of 0.417. For the same compound, the relative viability (HCC-827; first compound 0.1581 µM) was 0.408, the relative viability (HCC-827; first compound 0.5 µM) was 0.455 and the relative viability (NCI-H1975; first compound 0.005 µM) was 0.676. It also gave a relative viability (NCI-H1975; first compound 0.01581 µM) of 0.739, a relative viability (NCI-H1975; first compound 0.05 µM) of 0.789 and a relative viability (NCI-H1975; first compound 0.1581 µM) of 0.691. For the same compound, the relative viability (NCI-H1975; first compound 0.5 µM) was 0.567, the relative viability (NCI-H1437; first compound 0.005 µM) was 0.405 and the relative viability (NCI-H1437; first compound 0.01581 µM) was 0.343. The relative viability (NCI-H1437; first compound 0.05 µM) was 0.53, the relative viability (NCI-H1437; first compound 0.1581 µM) was 0.44 and the relative viability (NCI-H1437; first compound 0.5 µM) was 0.436. It also gave a relative viability (NCI-H23; first compound 0.005 µM) of 0.324, a relative viability (NCI-H23; first compound 0.01581 µM) of 0.323 and a relative viability (NCI-H23; first compound 0.05 µM) of 0.547. The relative viability (NCI-H23; first compound 0.1581 µM) was 0.406, the relative viability (NCI-H23; first compound 0.5 µM) was 0.427 and the relative viability (NCI-H2342; first compound 0.005 µM) was 0.469. For the same compound, the relative viability (NCI-H2342; first compound 0.01581 µM) was 0.543, the relative viability (NCI-H2342; first compound 0.05 µM) was 0.603 and the relative viability (NCI-H2342; first compound 0.5 µM) was 0.43. The relative viability (BEN; first compound 0.005 µM) was 0.515, the relative viability (BEN; first compound 0.01581 µM) was 0.425 and the relative viability (BEN; first compound 0.05 µM) was 0.572. It also gave a relative viability (BEN; first compound 0.5 µM) of 0.542, a relative viability (NCI-H441; first compound 0.005 µM) of 0.682 and a relative viability (NCI-H441; first compound 0.01581 µM) of 0.635. The relative viability (NCI-H441; first compound 0.05 µM) was 0.596, the relative viability (NCI-H441; first compound 0.1581 µM) was 0.768 and the relative viability (NCI-H441; first compound 0.5 µM) was 0.474. For the same compound, the relative viability (EKVX; first compound 0.005 µM) was 0.443, the relative viability (EKVX; first compound 0.01581 µM) was 0.356 and the relative viability (EKVX; first compound 0.05 µM) was 0.35. It also gave a relative viability (EKVX; first compound 0.1581 µM) of 0.47, a relative viability (EKVX; first compound 0.5 µM) of 0.474 and a relative viability (SK-MES-1; first compound 0.005 µM) of 0.801. For the same compound, the relative viability (SK-MES-1; first compound 0.01581 µM) was 0.888, the relative viability (SK-MES-1; first compound 0.05 µM) was 0.98 and the relative viability (SK-MES-1; first compound 0.1581 µM) was 0.901. For the same compound, the relative viability (SK-MES-1; first compound 0.5 µM) was 0.789, the relative viability (NCI-H650; first compound 0.005 µM) was 0.763 and the relative viability (NCI-H650; first compound 0.01581 µM) was 0.743. The relative viability (NCI-H650; first compound 0.05 µM) was 0.743, the relative viability (NCI-H650; first compound 0.1581 µM) was 0.732 and the relative viability (NCI-H650; first compound 0.5 µM) was 0.594. The relative viability (A-427; first compound 0.005 µM) was 0.179, the relative viability (A-427; first compound 0.01581 µM) was 0.23 and the relative viability (A-427; first compound 0.05 µM) was 0.251. For the same compound, the relative viability (A-427; first compound 0.1581 µM) was 0.281, the relative viability (A-427; first compound 0.5 µM) was 0.207 and the relative viability (NCI-H596; first compound 0.005 µM) was 0.873. For the same compound, the relative viability (NCI-H596; first compound 0.01581 µM) was 0.888, the relative viability (NCI-H596; first compound 0.05 µM) was 0.939 and the relative viability (NCI-H596; first compound 0.5 µM) was 0.885. For the same compound, the relative viability (HARA; first compound 0.005 µM) was 0.113, the relative viability (HARA; first compound 0.01581 µM) was 0.107 and the relative viability (HARA; first compound 0.05 µM) was 0.112. It also gave a relative viability (HARA; first compound 0.1581 µM) of 0.133 and a relative viability (HARA; first compound 0.5 µM) of 0.145.
